In paper PMC12933331, “A Cryptic Pocket Allosterically Modulates Oligosaccharide Binding to DC-SIGN” (JACS Au, 2026):
Substitutions are numbered along the chain they refer to.

Assays:
Assay type in all cases: binding
DC-SIGN ECD wildtype = target: T1, DC-SIGN ECD wildtype (Homo sapiens, UniProt Q9NNX6); experiment: Plate-based horseradish peroxidase assay; conditions: 1 µg mL-1 HRP, 25 mM CaCl2
T1 construct: acids 64 -404 of DC -SIGN; made in house
T1 sequence (Q9NNX6 64-404): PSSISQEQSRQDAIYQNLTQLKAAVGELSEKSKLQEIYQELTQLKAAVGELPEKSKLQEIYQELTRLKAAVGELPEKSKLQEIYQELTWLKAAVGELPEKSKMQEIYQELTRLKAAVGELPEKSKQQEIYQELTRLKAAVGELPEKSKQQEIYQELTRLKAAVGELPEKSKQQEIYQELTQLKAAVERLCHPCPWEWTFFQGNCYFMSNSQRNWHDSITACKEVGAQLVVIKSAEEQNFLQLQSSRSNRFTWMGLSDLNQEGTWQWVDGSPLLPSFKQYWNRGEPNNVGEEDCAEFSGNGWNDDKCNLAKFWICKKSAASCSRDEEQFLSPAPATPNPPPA
Description: (§1) chromatography. Purified protein was dialyzed against 25 mM HEPES, 150 mM NaCl, 10 mM CaCl2, pH 7.4, concentrated using a centrifugal spin filter, snap frozen and then stored at -80°C. […]
(§2) Plate-based horseradish peroxidase assay
(§3) General remarks. Unless stated otherwise, all reagents and buffers were obtained from Sigma Aldrich or Carl Roth. Measurements were done on a Enspire Multimode Plate Reader (PerkinElmer). GraphPad Prism was used for all data processing and analysis.
(§4) CaCl2 titration. 100 µg mL-1 DC-SIGN ECD were immobilized in immobilization buffer (25 mM HEPES, 150 mM NaCl, 25 mM CaCl 2, pH 7.4) overnight at 4°C on transparent Nunc Maxisorp 96-well plates (Thermo Fisher). Protein solution was removed, and plates were washed three times with immobilization buffer and then blocked for 2 hours at 4°C with blocking buffer (25 mM HEPES, 150 mM NaCl, 25 mM CaCl 2, 2% BSA, 0.01% Tween -20). Plates were washed twice with 25 mM HEPES, 150 mM NaCl, 5 mM EDTA, pH 7.4 and twice with 25 mM HEPES, 150 mM NaCl, pH 7.4 to remove residual Ca 2+. To titrate Ca2+, CaCl2 in 25 mM HEPES, 150 mM NaCl, pH 7.4 was serially diluted on the plate at a constant HRP concentration of 1 µg mL-1 and then incubated at RT for 2 hours. Following incubation, plates were washed three times with 25 mM HEPES, 150 mM NaCl, pH 7.4 and bound HRP was detected using a TMB substrate kit (Thermo Fisher) and 0.18 M H2SO4 according to manufacturer’s instructions. Absorption was […]
(§5) HRP titration. Immobilization and blocking were done as described above. After blocking, plates were washed three times with immobilization buffer. HRP in immobilization buffer was serially diluted on the plate at a constant concentration CaCl2 concentration of 25 mM and then incubated […]
(§6) at RT for 2 hours. Following incubation, plates were washed three times with immobilization buffer and HRP was detected as described above.
(§7) Immobilization and blocking were done as described above. After blocking, plates were washed three times with immobilization buffer. Mannose in immobilization buffer containing 1 µg mL-1 HRP was serially diluted on the plate and then incubated at RT for 2 hours.
(§8) Following incubation, plates were washed three times with immobilization buffer and HRP was detected as described above.
(§9) All conditions were measured in technical triplicates, averaged and normalized to the control well […]
(§10) IC50 and EC50 values and hill […]
(§11) slopes (nH) were obtained in a four-parameter fit according to equation (1).
(§12) Y = bottom + top − bottom (1)
(§13) With bottom and top representing the minimal and maximal response plateaus, respectively, Y as the observed response and X the logarithmic concentration of the ligand . […]
(§14) Biosynth. Spectra were processed in TopSpin 4.2.0 and data analysis was performed using CCPN Analysis 3.2.0 for 2D spectra and in MestreNova for 1D spectra.2 Further analysis was done using GraphPad Prism and in-house python scripts.

DC-SIGN ECD M270F = target: T2, DC-SIGN ECD M270F (Homo sapiens, UniProt Q9NNX6, M270F); experiment: Plate-based horseradish peroxidase assay; conditions: 1 µg mL-1 HRP, 25 mM CaCl2
T2 construct: acids 64 -404 of DC -SIGN; made in house
T2 sequence (Q9NNX6 64-404 M270F): T1 sequence (Q9NNX6 64-404) with M207F
Description: as §1, §2, §3, §4, §5, §6, §7, §8, §9, §10, §11, §12, §13, §14

DC-SIGN CRD E358A = target: T3, DC-SIGN CRD E358A (Homo sapiens, UniProt Q9NNX6, E358A); experiment: 1H-15N HSQC NMR titration (CSP fitting)
T3 construct: acids 253-404 of DC-SIGN; His-tag (N); made in house
T3 sequence (Q9NNX6 253-404 E358A): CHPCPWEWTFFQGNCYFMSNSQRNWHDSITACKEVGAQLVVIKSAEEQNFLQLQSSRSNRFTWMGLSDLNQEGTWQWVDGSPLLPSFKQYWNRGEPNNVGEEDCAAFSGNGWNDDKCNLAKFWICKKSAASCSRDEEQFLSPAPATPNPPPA
Description: 1H-15N HSQC NMR. 1H-15N HSQC NMR spectra were collected with 256 increments in the nitrogen and 24 scans per increment and 2048 points in the direct dimension. The relaxation delay d1 was set to 1.0 s. The W5 WATERGATE pulse sequence was used for solvent suppression.3, 4 Experiments were performed at a CRD concentration of 200 μM in 20 mM MES, 40 mM NaCl, 10 mM CaCl2 (pH 6.0) supplemented with 10% D 2O and, if applicable, varying concentrations of ligands. Samples of apo DC -SIGN CRD were prepared as described for 1H-13C HSQC NMR experiments. A previously published resonance assignment of DC-SIGN CRD was transferred to the nearest neighbor in a reference spectrum recorded without ligand.5 Unassigned, overlapping or disappearing peaks were not assigned.
CSPs induced by mutations or ligands were calculated as previously described according to […]
The empirical weighing factor a was set to 0.15 for all calculations.
Dissociation constants (K Ds) were determined in titration experiments at five ligand concentratio ns […]
in the fast exchange regime were used for the fitting procedure via equation 4 in a global two - […]
with CSP max corresponding to the CSP values upon saturation and the bound protein fraction p b […]
CHESPA was performed as previously described .7 The chemical shift vector between apo and holo wildtype DC -SIGN CRD was used as reference perturbation to calculate the vector product to […]

[1] = read-out: IC50, inhibition of HRP binding

OC[C@H]1OC(O)[C@@H](O)[C@@H](O)[C@@H]1O (some centres unmarked) [mannose] was tested, and the “hill slope, inhibition of HRP binding” value (DC-SIGN ECD wildtype) was -1.8, the IC50 (DC-SIGN ECD wildtype; [1]) was 2.3 mM and the “hill slope, inhibition of HRP binding” value (DC-SIGN ECD M270F) was -1.5. The IC50 (DC-SIGN ECD M270F; [1]) was 3.1 mM and the Kd (DC-SIGN CRD E358A) was 51.1 ± 4.9 mM.
